Source: paper PMC7339578, “Multiple circulating alkaloids and saponins from intravenous Kang-Ai injection inhibit human cytochrome P450 and UDP-glucuronosyltransferase isozymes: potential drug–drug interactions” (Chinese Medicine, 2020)
Where two headings read alike, the source gives them in different places.

Columns and labels:
Format in all cases: in vivo, Sprague–Dawley rats
[1] = Biliary (hepatobiliary) excretion in rats after a 30-min infusion of Kang-Ai injection
Protocol: (§1) For urine sampling, the rats were housed singly in metabolic cages. And then, the urine samples were collected at 0–4, 4–8 and 8–12 h after starting infusion and were weighed. Likewise, bile samples were also collected at 0–3, 3–6, 6–9 and 9–12 h after starting infusion and were weighed. The urine and bile collection tubes were all frozen at − 80 °C.
(§2) Pharmacokinetic parameters were estimated by non-compartmental analysis using WinNonlin 6.3 software (Pharsight, NC, US). Data are presented as the mean ± SD (n = 3). The area under the concentration–time curve up to the last measured point in time (AUC0-t) was calculated using the trapezoidal rule. The total plasma clearance (CLtot, p) was calculated by dividing the compound dose by the AUC0-∞, and the distribution volume at steady state (VSS) was estimated by multiplying the CLtot, p by the mean residence time (MRT). The renal excretory clearance (CLR) and hepatobiliary (CLB) was determined by dividing the cumulative amount excreted into urine (Cum.Ae-U) and bile (Cum.Ae-B) by the plasma AUC0-∞, respectively. The fractions of dose excreted into urine (fe-U) and the fractions of dose excreted into bile (fe-B) were established using the relationship Cum.Ae-U/Dose and Cum.Ae-B/Dose, respectively. Mean differences between treatment and control groups were analyzed by two-tailed unpaired Student’s t test by Graphpad Prism V5 software (SanDiego, CA). The level of significance was set at p < 0.05 (∗), p < 0.01 (∗∗) or p < 0.001 (∗∗∗).

[2] = Urinary (renal) excretion in rats after a 30-min infusion of Kang-Ai injection
Protocol: as §1, §2

[3] = Plasma pharmacokinetics in rats after a 30-min intravenous infusion of Kang-Ai injection
Protocol: Specific pathogen free (SPF) grade male Sprague–Dawley rats (250 ± 20) g were provided by the Experimental Animal Center of Zhengzhou University (Zhengzhou, China). These rats were kept in a designated animal room at constant temperature (22 ± 2) °C and humidity (50 ± 20) % with 12 h of light/dark per day and free access to water and food. All protocols of animal experiments were approved in accordance with the Regulations of Experimental Animal Administration issued by the Ethics Review Committee for Animal Experimentation of Jinan University (Ethical Review NO. 20190301010). Prior to the experiments, the rats were fasted for 12 h but with free access to water. After study use, the rats were euthanized with CO2 gas.
The rats in this study all received a single 30-min intravenous infusion of Kang-Ai injection via the tail veins using TYD01-02 infusion pumps (Lead Fluid, Baoding, China). The dose was derived from the label daily dose of Kang-Ai injection (60 mL/person, once daily) according to dose normalization by body surface area. For plasma pharmacokinetic studies, the rats were randomly received a single intravenous 30 min-bolus dose at 6 mL/kg. Blood samples (100 μL) were collected from the rats’ external jugular veins into heparinized polypropylene tubes at 5, 15, 30, 45 min, and 1, 1.5, 2, 3, 4, 6, 8, 12 h. After gently shaking for 10 s, the blood samples were centrifuged at 13000 g for 10 min to yield plasma samples, which were kept frozen at − 80 °C until analysis.
as §2

[4] = rat bile 0–12 h, Kang-Ai injection 6 mL/kg iv
[5] = rat urine 0–12 h, Kang-Ai injection 6 mL/kg iv
[6] = male, Sprague-Dawley, rat, in vivo, iv

Compound	fe-B,0–12h (fraction of dose excreted into bile) ([1]; rat, in vivo, iv)	fe-U,0–12h (fraction of dose excreted into urine) ([2]; rat, in vivo, iv)	CLtot, p ([3]; rat, in vivo, iv)	Cmax ([3]; rat, in vivo, iv)	VSS ([3]; rat, in vivo, iv)	t1/2 ([3]; rat, in vivo, iv)	CLB (hepatobiliary clearance) ([1]; rat, in vivo, iv)	CLR (renal excretory clearance) ([2]; rat, in vivo, iv)	other results
CC(C)=CCC[C@](C)(O[C@@H]1O[C@H](CO)[C@@H](O)[C@H](O)[C@H]1O)[C@H]1CC[C@]2(C)[C@@H]1[C@H](O)C[C@@H]1[C@@]3(C)CC[C@H](O)C(C)(C)[C@@H]3[C@@H](O)C[C@]12C [Compound C2, Ginsenoside F1]	–	–	–	–	–	–	–	–	fe-B,0–12h (fraction of dose excreted into bile) [1, 4]: 24.20 ± 4.93%; fe-U,0–12h (fraction of dose excreted into urine) [2, 5]: 23.37 ± 7.94%
9α-hydroxysophoramine [Compound A4]	11.14 ± 1.05%	42.80 ± 14.69%	–	–	–	–	–	–	–
O=C1CCC[C@@H]2[C@H]3CCCN4CCC[C@@](O)(CN12)[C@@H]34 [Compound A9, Sophoranol]	1.27 ± 0.20%	59.77 ± 8.80%	56.05 ± 22.70 mL/h	397 ± 49.7 nM	53.50 ± 7.71 mL	0.82 ± 0.37 h	0.68 ± 0.16 mL/h	34.24 ± 17.17 mL/h	–
O=C1C=CC[C@@H]2[C@H]3C[C@H](O)CN4CCC[C@@H](CN12)[C@@H]34 [Compound A6, 9α-hydroxysophocarpine]	12.50 ± 1.32%	12.92 ± 4.98%	47.70 ± 10.72 mL/h	344 ± 40.7 nM	93.63 ± 24.86 mL	2.16 ± 1.28 h	5.86 ± 1.10 mL/h	6.23 ± 2.97 mL/h	–
CC(C)=CCC[C@](C)(O[C@@H]1O[C@H](CO[C@@H]2OC[C@H](O)[C@H](O)[C@H]2O)[C@@H](O)[C@H](O)[C@H]1O)[C@H]1CC[C@]2(C)[C@@H]1[C@H](O)C[C@@H]1[C@@]3(C)CC[C@H](O)C(C)(C)[C@@H]3[C@@H](O)C[C@]12C [Compound C4, Ginsenoside F3]	–	–	–	–	–	–	–	–	fe-B,0–12h (fraction of dose excreted into bile) [1, 6]: 67.93 ± 8.80%; fe-U,0–12h (fraction of dose excreted into urine) [2, 6]: 24.46 ± 3.37%
CC(C)(O[C@@H]1O[C@H](CO)[C@@H](O)[C@H](O)[C@H]1O)[C@@H]1CC[C@](C)([C@H]2[C@@H](O)C[C@@]3(C)[C@@H]4C[C@H](O)[C@H]5C(C)(C)[C@@H](O[C@@H]6OC[C@@H](O)[C@H](O)[C@H]6O)CC[C@@]56C[C@@]46CC[C@]23C)O1 [Compound B1, Isoastragaloside IV]	30.40 ± 3.79%	–	–	–	–	–	–	–	–
O=c1cccc2n1C[C@H]1C[C@@H]2CN2CC[C@H](O)C[C@H]12 [Compound A5, Baptifoline]	–	–	–	–	–	–	–	–	t1/2 ([3]; rat plasma, 30-min iv infusion of Kang-Ai injection 6 mL/kg): 2.15 ± 0.50 h; Cmax ([3]; rat plasma, 30-min iv infusion of Kang-Ai injection 6 mL/kg, read-out: Cmax): 264 ± 47.2 nM; fe-B,0–12h (fraction of dose excreted into bile) [1, 4]: 10.30 ± 1.11%; fe-U,0–12h (fraction of dose excreted into urine) [2, 5]: 37.56 ± 15.13%
C=C(CCC=C(C)C)[C@H]1CC[C@]2(C)[C@@H]1[C@H](O)C[C@@H]1[C@@]3(C)CC[C@H](O)C(C)(C)[C@@H]3[C@@H](O[C@@H]3O[C@H](CO)[C@@H](O)[C@H](O)[C@H]3O[C@@H]3O[C@@H](C)[C@H](O)[C@@H](O)[C@H]3O)C[C@]12C [Compound E3, Ginsenoside Rg6]	31.31 ± 6.25%	–	–	–	–	–	–	–	–
CC(C)=CC/C=C(/C)[C@H]1CC[C@]2(C)[C@@H]1[C@H](O)C[C@@H]1[C@@]3(C)CC[C@H](O)C(C)(C)[C@@H]3[C@@H](O[C@@H]3O[C@H](CO)[C@@H](O)[C@H](O)[C@H]3O[C@@H]3O[C@@H](C)[C@H](O)[C@@H](O)[C@H]3O)C[C@]12C [Compound E4, Ginsenoside F4]	29.36 ± 3.14%	–	–	–	–	–	–	–	–
O=c1cccc([C@@H]2C[C@H](CO)[C@H]3CCCCN3C2)[nH]1 [Compound A8, Mamanine]	34.12 ± 4.23%	15.28 ± 5.11%	7.93 ± 1.77 mL/h	421 ± 68.1 nM	16.89 ± 5.16 mL	2.32 ± 1.03 h	2.67 ± 0.46 mL/h	1.23 ± 0.50 mL/h	–
O=C1CCCC2=C3CCC[N+]4([O-])CCC[C@@H](CN12)[C@@H]34 (stereo partly shown) [Compound A7, Leontalbinine N-oxide]	7.30 ± 1.41%	61.05 ± 10.61%	20.03 ± 4.84 mL/h	202 ± 19.1 nM	150.70 ± 19.02 mL	5.73 ± 1.74 h	1.42 ± 0.17 mL/h	12.32 ± 4.14 mL/h	MRT ([3]; rat, in vivo, iv): 7.94 h
